From US8404803B2, “Cancer-associated antigen analogue peptides and uses thereof” (Chugai Seiyaku Kabushiki Kaisha, priority 2005, dated 2013)

Columns and labels:
Format in all cases: cell-based, human
[1] = system: CD4-positive/IL-4-producing T cells; experiment: Flow cytometry detection of CD4-positive/IL-4-positive T cells in peptide-stimulated mononuclear cell samples; conditions: for CD4+ IL-4+ number of positive samples/tested samples: mononuclear cell samples cultured 48 hours with peptide and IL-2; for CD4+ IL-4+ number of positive samples/tested samples / CD4+ IL-4+ number of positive samples/tested samples × 100 (%): positive sample > mean of control + 2 × SD (OVCA10-MNC group, 1.148%)
Method: (§1) All operations concerning cell culture were performed aseptically. First, human peripheral mononuclear cell fractions (comprising T cells, B cells, macrophages and such; hereinafter referred to as “mononuclear cell samples”) were prepared from the blood samples by density gradient centrifugation. Next, these mononuclear cells were suspended at 1×10^5 cell/ml in complete media having the following composition: • Complete Medium: RPMI1640 culture medium (Gibco Laboratories Inc., Grand Island, N.Y.) to which 10% fetal bovine serum (Cell Culture Laboratories, Cleveland, Ohio), 0.2 mM L-glutamine, 100 U/mL penicillin, 100 μg/mL streptomycin (Gibco Laboratories Inc.), and 0.2 ng/mL recombinant human IL-2 (Dainippon Pharmaceutical Co., Tokyo, Japan) have been mixed.
(§2) Theses mononuclear cell samples were placed still in V-bottomed 96-well tissue culture plastic plates (Flow Laboratories Inc., Horsham, Pa.) in the presence and absence of peptides, and cultured for 48 hours at 37° C. in a CO2 culture apparatus (Sanyo Medica, Osaka, Japan).
(§3) A number of mouse-derived anti-human specific monoclonal antibodies with different fluorescences (hereinafter referred to as ‘monoclonal antibodies’) were used to simultaneously analyze by double-staining the CD markers CD4 and CD8, which are on the T cell membranes, and the cytokines within the T cells. As the monoclonal antibodies, products labeled with either fluorescent substance phycoerythrin (hereinafter ‘PE’) or fluorescein isothiocyanate (hereinafter ‘FITC’) were used (Miltenyi Biotec, Glandbach, Germany). For detection, a flow cytometry apparatus FACScan (Becton Dickinson) was used to measure the frequency of cells to which the monoclonal antibodies had bound. Positive cells are automatically detected by the flow cytometry apparatus.
(§4) Since positive cells cannot be identified after the cytokines have been secreted to the outside of the cells, detection was performed at a stage where the cytokines are inside the cells. Therefore, the Cytofix/Cytoperm Kit (Pharmingen, San Diego, Calif.) was used for the analysis, using methods recommended by the manufacturer and a positive control for detection recommended by the kit (Prussin C, Metcalfe D, Detection of intracytoplasmic cytokine using flow cytometry and directly conjugated anti-cytokine antibodies, J Immunol Meth. 188: 117-128, 1995). Specifically, brefeldin A (Pharmingen, San Diego, Calif.) was added at 0.7 μl/1 ml/well to stop protein production in the Golgi apparatus, and the peptide-stimulated mononuclear cell samples were treated at 37° C. for two hours. Next, the culture plates were placed on ice and the reaction was stopped by adding physiological saline at 4° C. The mononuclear cell samples were transferred into 15 ml tubes as though by washing with the physiological saline at 4° C., and were then centrifuged at 1600 rpm for ten minutes to remove the supernatant.
(§5) First, to dye CD4s on the cell surface, 10 μl of FITC-labeled mouse anti-human CD4 was added, with CD8 monoclonal antibody as a control, and this was reacted at 4° C. for 30 minutes. The cells were then separated with 0.5% bovine serum albumin/physiological saline at 4° C., then 0.5% bovine serum albumin/physiological saline at 4° C. was added thereto, and this was centrifuged at 1600 rpm for ten minutes at 4° C. to remove the supernatant.
(§6) Next, the mononuclear cell samples were fixed and their cell membranes were permeabilized. The cells were suspended in 250 μl of Cytofix/Cytoperm (Pharmingen) solution and reacted at 4° C. for 20 minutes. 10 μl of the aforementioned fluorescently labeled anti-IFNγ monoclonal antibody or anti-IL-4 monoclonal antibody was added to these mononuclear cell samples and reacted at 4° C. for 30 minutes. Then, the cells were separated by adding 0.5% bovine serum albumin/physiological saline at 4° C., and 0.5% BSA/PBS at 4° C. was further added thereto. After centrifugation at 1600 rpm for ten minutes at 4° C., the supernatant was removed. […]

[2] = system: CD4-positive/IFNγ-producing T cells; experiment: Flow cytometry detection of CD4-positive/IFNγ-positive T cells in peptide-stimulated mononuclear cell samples; conditions: for CD4+ IFNγ+ number of positive samples/tested samples: mononuclear cell samples cultured 48 hours with peptide and IL-2; for CD4+ IFNγ+ number of positive samples/tested samples / CD4+ IFNγ+ number of positive samples/tested samples × 100 (%): positive sample > mean of control + 2 × SD (OVCA10-MNC group, 1.378%)
Method: as §1, §2, §3, §4, §5, §6

[3] = system: CD4-positive/TNFα-positive T cells; experiment: Flow cytometry detection of CD4 and TNFα in OVCA11-stimulated T cells; conditions: typical example, FIG. 12; after OVCA11 stimulation (0.44% before)
Source text: as §3
(§7) Since positive cells cannot be identified after the cytokines have been secreted to the outside of the cells, detection was performed at a stage where the cytokines are inside the cells. […]
(§8) T cells activated in an antigen-specific manner are known to produce tumor necrosis factor α (TNFα) when they injure target cells, such as tumor cells. Therefore, the OVCA11-stimulated T cells obtained in [Example 3] were analyzed by flow cytometry to determine whether they indeed produced TNFα, using a similar method to [Example 3] and combinations of CD4 and TNFα, and CD8 and TNFα.

[4] = system: CD8-positive/TNFα-positive T cells; experiment: Flow cytometry detection of CD8 and TNFα in OVCA11-stimulated T cells; conditions: typical example, FIG. 12; after OVCA11 stimulation (0.28% before)
Source text: as §3, §7, §8

CD4-positive T cells = experiment: Analysis of the CD4-positive T cell epitope (T cells positive for IL-4 or IFNγ); conditions: peptides with ten amino acid residues reproducing the MUC16 primary sequence
Method: The results were recorded as: number of double staining-positive cells/total number of counted mononuclear cells ×100=positive cell frequency (%). Furthermore, peptide antigen-specific T cell reactions were determined to be positive when the individual frequencies of positive cells in the mononuclear cell samples were the same as or greater than the mean plus two standard deviations (mean+2SD) of the negative control group, where the negative control was a mononuclear cell sample group that had been stimulated with analogue peptide (OVCA10 stimulation). In addition, each of the peptide-stimulated groups were compared by using t-tests to measure the significant difference.
Next, to determine the T cell epitope (based not on the analogues but on the original sequence), the present inventors went back to the original amino acid sequence of the 11-times repeat sequences of MUC16 from which the 30 amino acid residue sequence: […] (SEQ ID NO: 45) common to OVCA11 and OVCA12 was derived. Furthermore, the sequence was divided into lots of ten amino acid residues to prepare OVCA101 (SEQ ID NO: 4), 102 (SEQ ID NO: 5), 103 (SEQ ID NO: 6), 104 (SEQ ID NO: 7), 105 (SEQ ID NO: 8), 106 (SEQ ID NO: 9), 107 (SEQ ID NO: 2), 108 (SEQ ID NO: 3), 109, 110, 111, 112, 113, 114, 115 (SEQ ID NO: 10) (FIG. 5), and T cells positive for IL-4 or IFNγ were detected using a method similar to the above.

**Q.** What does the source list for “GHTAPGPLLVPFTLNFTITN (listed as Homo sapiens) [OVCA11]”?
**A.** frequency of CD4-positive/IL-4-producing T cells compared to groups to which OVCA10 was added ([1]; FIG. 8, peptide 15 μM, statistically significant difference): higher; frequency of CD4-positive/IL-4-positive cells, mean±standard deviation ([1]; all the analyzed mononuclear cell samples (FIG. 8), peptide 15 μM): 4.314±2.805%; average number of IL-4-positive cells ([1]; healthy group): 4.89%; CD4+ IL-4+ number of positive samples/tested samples [1]: 27/32; CD4+ IL-4+ number of positive samples/tested samples ([1]; listed as OVCA 11): 27 of the 32; average number of IL-4-positive cells ([1]; patient group): 4.12%; CD4+ IL-4+ number of positive samples/tested samples × 100 (%) [1]: 84.4%; CD4+ IL-4+ number of positive samples/tested samples × 100 (%) ([1]; listed as OVCA 11): 84.4%; frequency of CD4-positive/IL-4-positive T cells ([1]; typical example of flow cytometry, FIGS. 6 and 7, IL-2 and analogue peptide added): 7.06%; frequency of CD4-positive/IFNγ-producing T cells compared to groups to which OVCA10 was added ([2]; FIG. 11, peptide 15 μM, statistically significant difference): higher; frequency of CD4-positive/INFγ-positive cells, mean±standard deviation ([2]; all of the analyzed mononuclear cell samples (FIG. 11), peptide 15 μM): 3.037±2.234%; average number of IFNγ-positive cells ([2]; healthy group): 3.48%; CD4+ IFNγ+ number of positive samples/tested samples [2]: 26/33; CD4+ IFNγ+ number of positive samples/tested samples ([2]; listed as OVCA 11): 26 of the 33; average number of IFNγ-positive cells ([2]; patient group): 2.85%; CD4+ IFNγ+ number of positive samples/tested samples × 100 (%) [2]: 78.8%; CD4+ IFNγ+ number of positive samples/tested samples × 100 (%) ([2]; listed as OVCA 11): 78.8%; frequency of CD4-positive/IFNγ-positive T cells ([2]; typical example of flow cytometry, FIGS. 9 and 10, IL-2 and analogue peptide added): 3.12%; frequency of CD4-positive/TNFα-positive T cells [3]: 5.76%; frequency of CD8-positive/TNFα-positive T cells [4]: 3.98%

**Q.** With LFTLNPTITN [OVCA108] as the sequence, how does the “frequency of CD4-positive/IL-4-producing T cells at the time of epitope determination” value ([1]; FIG. 14, peptide 15 μM) read?
**A.** High frequency cases could be detected

**Q.** And the “CD4-positive/IL-4-positive frequencies, mean ± standard deviation” value ([1]; epitope determination, patient's mononuclear cell samples (FIG. 14), peptide 15 μM)?
**A.** 6.471±13.319%

**Q.** And the “CD4+ IL-4+ number of positive samples/tested samples” value [1]?
**A.** 5/9

**Q.** And the “CD4+ IL-4+ number of positive samples/tested samples × 100 (%)” value [1]?
**A.** 55.6%

**Q.** What about the “frequency of CD4-positive/IL-4-positive T cells at the time of epitope determination” value ([1]; typical example of flow cytometry, FIG. 13, IL-2 and peptide added) of the same sequence?
**A.** 1.17%

**Q.** And the “frequency of CD4-positive/IFNγ-producing T cells at the time of epitope determination” value ([2]; FIG. 16, peptide 15 μM)?
**A.** High frequency cases could be detected

**Q.** What about the “CD4-positive/IFNγ expression-positive frequencies, mean ± standard deviation” value ([2]; epitope determination, patient's mononuclear cell samples (FIG. 16), peptide 15 μM) of the same sequence?
**A.** 8.963±19.939%

**Q.** What about the “CD4+ IFNγ+ number of positive samples/tested samples” value [2] of the same sequence?
**A.** 2/8

**Q.** What about the “CD4+ IFNγ+ number of positive samples/tested samples × 100 (%)” value [2] of the same sequence?
**A.** 25.0%

**Q.** And the “frequency of CD4-positive/IFNγ-positive T cells at the time of epitope determination” value ([2]; typical example of flow cytometry, FIG. 15, IL-2 and peptide added)?
**A.** 1.27%

**Q.** And the “recognized by CD4-positive T cells” value (CD4-positive T cells)?
**A.** recognized by CD4-positive T cells
